Laboratory results as given in patent publication US10457637B2, “Benzenesulfonamide derivatives as inverse agonists of retinoid-related orphan receptor gamma (RORγ(T))” (GALDERMA RESEARCH & DEVELOPMENT, priority 2014, dated 2019).

How the values were obtained:
[1] = test system: IL-17A secretion by CD4+ cells; experiment: IL-17A secretion by CD4+ cells (HTRF); format: cell-based; conditions: 96 h; human CD4+ cells activated with anti-CD3 and anti-CD28, 4 days of incubation; read-out: IC50 hCD4/IL17
Description: This model allows measurement of the effect of inhibitors on IL-17A secretion by CD4+ cells. […] The amount of IL-17a secreted is measured by the TR-FRET (kit HTRF® Human Interleukin 17A (Cisbio, #64H17PEC)) technology.
The cells are rapidly thawed, resuspended in their culture medium (RPMI inactivated 10% FCS) supplemented with soluble anti-CD28 antibodies and seeded (100 000 cells/well) in 96-well plates precoated with anti-CD3 antibodies. The cells are then treated with the ranges of inhibitors to be tested (from 1000 nM to 0.05 nM, 0.1% DMSO). […] The IC50 values are calculated from a 4-parameter logistic model using the XLFit software (IDBS).

[2] = target: ROR gamma ligand-binding domain (hRORg) (Homo sapiens (Human), UniProt P51449); experiment: GAL4-RORγ transactivation (luciferase reporter, HG5LN HeLa line); format: cell-based; conditions: 18 hours incubation
ROR gamma ligand-binding domain (hRORg), sequence (P51449 269-508): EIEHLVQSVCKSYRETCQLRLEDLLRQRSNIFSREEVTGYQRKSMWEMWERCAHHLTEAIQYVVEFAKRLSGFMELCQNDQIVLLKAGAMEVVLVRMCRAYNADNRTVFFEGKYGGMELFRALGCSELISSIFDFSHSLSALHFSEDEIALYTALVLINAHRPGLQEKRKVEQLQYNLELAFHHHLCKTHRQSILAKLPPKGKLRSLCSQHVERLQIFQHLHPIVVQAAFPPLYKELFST
From the text: GAL4-RORγ Transactivation
The RORγ transactivation model was developed from the line HG5LN, which is a HeLa line that stably expresses a luciferase reporter gene controlled by a pentamer of the GAL4 recognition domain of yeast and of a β-globin promoter. The HG5LN line was stably transfected by the DNA-binding domain (DBD) of GAL4 fused to the ROR gamma ligand-binding domain (LBD). Molecules that inhibit the ROR gamma constitutive activity reduce the luciferase expression, thus leading to a reduction in the emitted luminescence.
The cells are seeded in 384-well plates (5000 cells in 45 μL/well of culture medium containing 10% fetal calf serum) and incubated for 4 hours at 37° C., 5% CO2. 5 μL of the test molecules (compounds described in the tables described above) are then added to each well and the plates are incubated for 18 hours at a temperature of 37° C. under 5% of CO2. 20 μL of luciferase substrate (Promega) are added to each well and the luminescence emitted is read by a microplate reader.
The luminescence units (“RLU”) are normalized by positive controls (“POS” containing a saturated concentration of benzenesulfonamide, N-(2,2,2-trifluoroethyl)-N-[4-[2,2,2-trifluoro-1-hydroxy-1-(trifluoromethyl)ethyl]phenyl]) and negative controls (“NEG” containing DMSO): % inhibition=((RLU−NEG)*100)/(POS−NEG). The IC50 values are calculated from a 4-parameter logistic model using the XLFit software (IDBS).

IC50 [1]	IC50 [2]	Structure (SMILES)
< 100 nM	< 100 nM	CCc1ccc(N(CC(C)C)S(=O)(=O)c2ccc(N3CCOCC3)c(S(C)(=N)=O)c2)cc1 (stereo not shown) [compound 123, N-(4-ethylphenyl)-N-isobutyl-3-(S-methylsulfonimidoyl)-4-morpholinobenzenesulfonamide]
> 1000 nM	> 1000 nM	CCc1ccc(N(CC(C)C)S(=O)(=O)c2ccc(N3CCOC[C@H]3C)c(S(C)(=N)=O)c2)cc1 (stereo partly drawn) [compound 103, N-(4-ethylphenyl)-N-isobutyl-4-((R)-3-methylmorpholino)-3-(S-methylsulfonimidoyl)benzenesulfonamide]
> 1000 nM	> 1000 nM	CCc1ccc(N(CC(C)C)S(=O)(=O)c2ccc(N3CC(O)C3)c(S(C)(=N)=O)c2)cc1 (stereo not shown) [compound 131, N-(4-ethylphenyl)-4-(3-hydroxyazetidin-1-yl)-N-isobutyl-3-(S-methylsulfonimidoyl)benzenesulfonamide]
< 100 nM	< 100 nM	Cc1ccc(N(CC(C)C)S(=O)(=O)c2ccc(OCC3CCOCC3)c(S(C)(=N)=O)c2)c(C)c1 (stereo not shown) [compound 142, N-(2,4-dimethylphenyl)-N-isobutyl-3-(S-methylsulfonimidoyl)-4-((tetrahydro-2H-pyran-4-yl)methoxy)benzenesulfonamide]
> 1000 nM	> 1000 nM	CCc1ccc(N(CC(C)C)S(=O)(=O)c2ccc(N3CC[C@@H](O)C3)c(S(C)(=N)=O)c2)cc1 (stereo partly drawn) [compound 130, N-(4-ethylphenyl)-4-((R)-3-hydroxypyrrolidin-1-yl)-N-isobutyl-3-(S-methylsulfonimidoyl)benzenesulfonamide]
< 100 nM	< 100 nM	CCc1ccc(N(CC(C)C)S(=O)(=O)c2ccc(N3CCSCC3)c(S(C)(=N)=O)c2)cc1 (stereo not shown) [compound 87, N-(4-ethylphenyl)-N-isobutyl-3-(S-methylsulfonimidoyl)-4-thiomorpholinobenzenesulfonamide]
< 100 nM	< 100 nM	CCc1ccc(N(CC(C)C)S(=O)(=O)c2ccc(NCC3CSC3)c(S(C)(=N)=O)c2)cc1 (stereo not shown) [compound 99, N-(4-ethylphenyl)-N-isobutyl-3-(S-methylsulfonimidoyl)-4-((thietan-3-ylmethyl)amino)benzenesulfonamide]
< 100 nM	100 to 1000 nM	CCc1ccc(N(CC(C)C)S(=O)(=O)c2ccc(N3CCC4(COC4)C3)c(S(C)(=N)=O)c2)cc1 (stereo not shown) [compound 112, N-(4-ethylphenyl)-N-isobutyl-3-(S-methylsulfonimidoyl)-4-(2-oxa-6-azaspiro[3.4]octan-6-yl)benzenesulfonamide]
> 1000 nM	> 1000 nM	CCc1ccc(N(CC(C)C)S(=O)(=O)c2ccc(N3CCC(O)CC3)c(S(C)(=N)=O)c2)cc1 (stereo not shown) [compound 128, N-(4-ethylphenyl)-4-(4-hydroxypiperidin-1-yl)-N-isobutyl-3-(S-methylsulfonimidoyl)benzenesulfonamide]
	100 to 1000 nM	COc1ccc(N(C(C)C)S(=O)(=O)c2ccc(OCC3CCOCC3)c(S(C)(=N)=O)c2)c(C)c1 (stereo not shown) [compound 143, N-isopropyl-N-(4-methoxy-2-methylphenyl)-3-(S-methylsulfonimidoyl)-4-((tetrahydro-2H-pyran-4-yl)methoxy)benzenesulfonamide]
	100 to 1000 nM	CCc1ccc(N(CC(C)C)S(=O)(=O)c2ccc(NCc3c(C)noc3C)c(S(C)(=N)=O)c2)cc1 (stereo not shown) [compound 97, 4-(((3,5-dimethylisoxazol-4-yl)methyl)amino)-N-(4-ethylphenyl)-N-isobutyl-3-(S-methylsulfonimidoyl)benzenesulfonamide]
	100 to 1000 nM	CCc1ccc(N(CC(C)C)S(=O)(=O)c2ccc(N3C[C@H]4C[C@@H]3CO4)c(S(C)(=N)=O)c2)cc1 (stereo partly drawn) [compound 115, 4-((1R,4R)-2-oxa-5-azabicyclo[2.2.1]heptan-5-yl)-N-(4-ethylphenyl)-N-isobutyl-3-(S-methylsulfonimidoyl)benzenesulfonamide]
	> 1000 nM	CCc1ccc(N(CC(C)C)S(=O)(=O)c2ccc(OCC3CCN(C(C)=O)CC3)c(S(C)(=N)=O)c2)cc1 (stereo not shown) [compound 50, 4-((1-acetylpiperidin-4-yl)methoxy)-N-(4-ethylphenyl)-N-isobutyl-3-(S-methylsulfonimidoyl)benzenesulfonamide]
	> 1000 nM	CCc1ccc(N(CC(C)C)S(=O)(=O)c2ccc(OCC3CCNCC3)c(S(C)(=N)=O)c2)cc1 (stereo not shown) [compound 49, N-(4-ethylphenyl)-N-isobutyl-3-(S-methylsulfonimidoyl)-4-(piperidin-4-ylmethoxy)benzenesulfonamide]
	> 1000 nM	CCc1ccc(N(CC(C)C)S(=O)(=O)c2ccc(NCC3CCS(=O)(=O)CC3)c(S(C)(=N)=O)c2)cc1 (stereo not shown) [compound 57, 4-(((1,1-dioxidotetrahydro-2H-thiopyran-4-yl)methyl)amino)-N-(4-ethylphenyl)-N-isobutyl-3-(S-methylsulfonimidoyl)benzenesulfonamide]
	100 to 1000 nM	CCc1ccc(N(CC(C)C)S(=O)(=O)c2ccc(NCC3CCS(=O)(=O)C3)c(S(C)(=N)=O)c2)cc1 (stereo not shown) [compound 56, 4-(((1,1-dioxidotetrahydrothiophen-3-yl)methyl)amino)-N-(4-ethylphenyl)-N-isobutyl-3-(S-methylsulfonimidoyl)benzenesulfonamide]
	> 1000 nM	CCc1ccc(N(CC(C)C)S(=O)(=O)c2ccc(NCC3CCN(C(=O)OC)CC3)c(S(C)(=N)=O)c2)cc1 (stereo not shown) [compound 93, methyl 4-(((4-(N-(4-ethylphenyl)-N-isobutylsulfamoyl)-2-(S-methylsulfonimidoyl)phenyl)amino)methyl)piperidine-1-carboxylate]
	> 1000 nM	CCc1ccc(N(CC(C)C)S(=O)(=O)c2ccc3c(c2)S(=N)(=O)CN3CC2CCOCC2)cc1 (stereo not shown) [compound 76, 1-imino-1-oxo-3-(tetrahydropyran-4-ylmethyl)-2,3-dihydro-1H-1λ^6-benzothiazole-6-sulfonic acid (4-ethylphenyl)isobutylamide]

Structure (SMILES)	IC50 [1]	IC50 [2]
CCc1ccc(N(CC(C)C)S(=O)(=O)c2ccc(OCC3CCOCC3)c(S(N)(=O)=O)c2)cc1 [compound 66, 4-(tetrahydropyran-4-ylmethoxy)benzene-1,3-disulfonic acid 3-amide 1-[(4-ethylphenyl)isobutylamide]]	< 100 nM	
CCc1ccc(N(CC(C)C)S(=O)(=O)c2ccc(NCC3CCOCC3)c(S(C)(=N)=O)c2)cc1 (stereo not shown) [compound 52, N-(4-ethylphenyl)-N-isobutyl-3-(S-methysulfonimidoyl)-4-[(tetrahydropyran-4-ylmethyl)amino]benzenesulfonamide]	< 100 nM	
CCc1ccc(N(CC(C)C)S(=O)(=O)c2ccc(OCC3CCOCC3)c(S(=N)(=O)CC)c2)cc1 (stereo not shown) [compound 18, N-(4-ethylphenyl)-N-isobutyl-3-ethanesulfoximino-4-(tetrahydropyran-4-ylmethoxy)benzenesulfonamide]	< 100 nM	
CCc1ccc(N(CC(C)C)S(=O)(=O)c2ccc(NCC3(CC)CCOCC3)c(S(C)(=N)=O)c2)cc1 (stereo not shown) [compound 124, N-(4-ethylphenyl)-4-(((4-ethyltetrahydro-2H-pyran-4-yl)methyl)amino)-N-isobutyl-3-(S-methylsulfonimidoyl)benzenesulfonamide]	< 100 nM	
